Experimental data: paper PMC3823594, “Conformational Changes Underlying Pore Dilation in the Cytoplasmic Domain of Mammalian Inward Rectifier K^+ Channels” (PLoS ONE, 2013)
Positions count from the first letter of the chain named.

Experiments:
Assay in all cases: Two-electrode voltage clamp, ACh-dependent (m2R-dependent) K+ current activation
Type in all cases: cell-based
Kir3.2 E236D = molecular target: T1, Kir3.2 E236D (Mus musculus, UniProt P48542, E236D); conditions: Kir3.2 E236D with porcine m2R in Xenopus oocytes; −120 mV; Hill equation fit
T1 sequence (P48542 19-425 E236D): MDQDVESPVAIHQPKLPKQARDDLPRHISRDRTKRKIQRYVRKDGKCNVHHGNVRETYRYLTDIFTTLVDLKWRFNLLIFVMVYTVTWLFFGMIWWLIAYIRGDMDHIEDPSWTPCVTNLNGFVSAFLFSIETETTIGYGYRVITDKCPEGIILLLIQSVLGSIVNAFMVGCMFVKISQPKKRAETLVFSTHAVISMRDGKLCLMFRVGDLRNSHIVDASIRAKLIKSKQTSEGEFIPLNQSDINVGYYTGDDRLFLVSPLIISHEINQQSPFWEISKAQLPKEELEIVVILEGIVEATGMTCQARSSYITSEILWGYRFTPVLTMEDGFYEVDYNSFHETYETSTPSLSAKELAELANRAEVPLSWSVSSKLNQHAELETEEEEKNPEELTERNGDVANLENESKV
T1 sequence (P06199 1-466 partner): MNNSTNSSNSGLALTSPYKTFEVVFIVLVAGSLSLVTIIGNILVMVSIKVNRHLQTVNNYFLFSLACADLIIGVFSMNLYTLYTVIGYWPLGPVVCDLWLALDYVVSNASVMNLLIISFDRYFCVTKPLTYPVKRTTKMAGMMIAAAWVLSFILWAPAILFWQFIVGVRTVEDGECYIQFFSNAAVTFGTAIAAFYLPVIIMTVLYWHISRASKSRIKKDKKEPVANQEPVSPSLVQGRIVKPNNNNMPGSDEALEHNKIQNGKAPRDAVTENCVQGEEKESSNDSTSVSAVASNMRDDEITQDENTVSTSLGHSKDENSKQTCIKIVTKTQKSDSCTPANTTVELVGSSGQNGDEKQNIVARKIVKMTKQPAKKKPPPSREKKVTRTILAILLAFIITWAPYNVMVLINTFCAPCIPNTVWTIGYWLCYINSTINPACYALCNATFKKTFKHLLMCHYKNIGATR
Text: (§1) The mouse Kir3.2d isoform was subjected to functional analyses. The amino acid numbers correspond to the longest mouse Kir3.2 isoform. Point mutations were introduced using the QuikChange site-directed mutagenesis kit (Stratagene, La Jolla, CA), and the presence of the mutations was confirmed by direct DNA sequencing. The care of Xenopus laevis was in accordance with the guideline of the Institute of Experimental Animal Sciences, Osaka University. The protocol was approved by the Animal Experiment Committee of Osaka University. The frogs were deeply anesthetized by immersing in 0.2% tricaine methanesulfonate for 20 min at 18°C. A portion of an ovary lobe was surgically removed and incubated with collagenase to remove follicular cells. The oocytes were injected with the cRNAs of Kir3.2 and porcine m2-muscarinic receptor (m2R), and maintained in modified Barth’s solution at 18°C with daily solution changes. Electrophysiological studies were undertaken 48–72 h later at room temperature (20–25°C). Two-electrode voltage-clamp recordings from oocytes were performed using a GeneClamp 500B amplifier (Axon Instruments, Sunnyvale, CA). […] The bath solution contained 40 mM KCl, 50 mM NaCl, 3 mM MgCl2, 0.15 mM niflumic acid, and 5 mM HEPES-KOH (pH 7.4). The currents were recorded in the absence or presence of various concentrations of acetylcholine (ACh). Ba^2+ (3 mM) was added at the end of the recording to estimate the endogenous leak current. The data are expressed as mean values ± standard error of the mean. For the quantitative estimation of ACh-dependent current responses of the wild-type (WT) and mutant channels, the current amplitudes at the end of test pulses at each ACh concentration ([ACh]) were fitted using the following equation:
(§2) I=min+[(max−min)/(1+(EC50/[ACh])^nH)]
(§3) where I is the current amplitude measured at the [ACh], n H is the Hill coefficient, and EC50 is the concentration that induces 50% of the maximal response. […] The values of n H and EC50 were calculated using a non-linear least-squares best fit (SigmaPlot 9; Systat Software). Statistical analyses were performed by one-way ANOVA with post-hoc tests.

Kir3.2 M313A = molecular target: T2, Kir3.2 M313A (Mus musculus, UniProt P48542, I313A); conditions: Kir3.2 M313A with porcine m2R in Xenopus oocytes; −120 mV; Hill equation fit
T2 sequence (P48542 19-425 I313A): T1 sequence (P48542 19-425 E236D) with D218E, I295A
T2 sequence (P06199 1-466 partner): T1 sequence (P06199 1-466 partner)
Text: as §1, §2, §3

Kir3.2 WT = molecular target: T3, Kir3.2 WT (Mus musculus, UniProt P48542); conditions: Kir3.2 WT with porcine m2R in Xenopus oocytes; −120 mV; Hill equation fit
T3 sequence (P48542 1-425): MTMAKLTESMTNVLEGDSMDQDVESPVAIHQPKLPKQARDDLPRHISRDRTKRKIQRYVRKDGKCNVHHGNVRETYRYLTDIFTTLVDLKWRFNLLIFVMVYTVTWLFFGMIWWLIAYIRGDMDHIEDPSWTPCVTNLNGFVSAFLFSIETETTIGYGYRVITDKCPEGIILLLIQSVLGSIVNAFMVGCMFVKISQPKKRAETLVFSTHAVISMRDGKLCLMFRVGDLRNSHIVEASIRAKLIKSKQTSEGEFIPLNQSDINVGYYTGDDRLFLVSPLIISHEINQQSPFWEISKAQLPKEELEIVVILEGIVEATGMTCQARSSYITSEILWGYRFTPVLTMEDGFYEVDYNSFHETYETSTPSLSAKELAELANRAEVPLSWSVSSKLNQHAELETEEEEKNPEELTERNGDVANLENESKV
T3 sequence (P06199 1-466 partner): T1 sequence (P06199 1-466 partner)
Text: as §1, §2, §3

With `CC(=O)OCC[N+](C)(C)C` [ACh, acetylcholine] the Hill coefficient (Kir3.2 E236D) was 0.74 ± 0.07, the Hill coefficient (Kir3.2 M313A) was 1.05 ± 0.08 and the Hill coefficient (Kir3.2 WT) was 0.83 ± 0.06.
